Data from ChEMBL document CHEMBL1125915, “Novel alkaloids from the tropical plant Ancistrocladus abbreviatus inhibit cell killing by HIV-1 and HIV-2” (J Med Chem, 1991).

How the values were obtained:
[1] = biological target: Human immunodeficiency virus type 1 reverse transcriptase (Human immunodeficiency virus 1) (UniProt Q72547); assay: Compound tested for inhibition of RT (reverse transcriptase) in HIV-infected CEM-SS cells; Inhibited; type: cell-based
[2] = system: CEM-SS; assay: Compound tested for inhibition of syncytium-forming units (SFU) in HIV-infected CEM-SS cells; Inhibited; type: functional, cell-based; settings: Homo sapiens
[3] = system: CEM-SS; assay: Compound tested for inhibition of P24 (P24 antigen) in HIV-infected CEM-SS cells; Inhibited; type: functional, cell-based; settings: Homo sapiens
[4] = system: CEM-SS; assay: Compound tested for inhibition of the cytopathic effects of HIV-1 upon CEM-SShuman lymphoblastoid target cells in vitro; type: functional, cell-based; settings: Homo sapiens
[5] = system: CEM-SS; assay: Compound tested for cytotoxic effect on uninfected CEM-SS human lymphoblastoid target cell; type: functional, cell-based

| inhibition [1] | EC50 [4] | Structure (SMILES) | inhibition [2] | inhibition [3] | IC50 [5] |
| --- | --- | --- | --- | --- | --- |
| Inhibited | – | COc1cc(C)cc2c(-c3c(O)cc(O)c4c3C[C@H](C)N[C@H]4C)cc(-c3cc(-c4c(O)cc(O)c5c4C[C@H](C)N[C@H]5C)c4cc(C)cc(OC)c4c3O)c(O)c12 (stereo in doubt; 1) [listing 1 of 2 here] | Inhibited | Inhibited | – |
| – | 20 µM | COc1cc(C)cc2c(-c3c(O)cc(O)c4c3C[C@H](C)N[C@H]4C)cc(-c3cc(-c4c(O)cc(O)c5c4C[C@H](C)N[C@H]5C)c4cc(C)cc(OC)c4c3O)c(O)c12 (stereo in doubt; 1) [listing 2 of 2 here] | – | – | 200 µM |
| Inhibited | – | COc1cc(C)cc2c(-c3c(O)cc(O)c4c3C[C@H](C)N[C@H]4C)cc(-c3cc(-c4c(O)cc(O)c5c4C[C@H](C)N[C@H]5C)c4cc(C)cc(OC)c4c3O)c(O)c12 (stereo in doubt; 2) | Inhibited | Inhibited | – |
